Measurements from patent US11260023B2, “Topical compositions containing rofecoxib and methods of making and using the same” (BRIORI BIOTECH, LLC, priority 2020, dated 2022).

Key:
[1] = Solubility of rofecoxib in solvent systems containing one solvent, UV spectrophotometry; assay type: physicochemical
Method: The solubility of rofecoxib was tested in a variety of solvent systems by UV spectrophotometry. A UV spectrophotometry method of evaluating the solubility of rofecoxib was used to determine the solubility of rofecoxib in various solvent systems. Erk et al. describes this method and is incorporated by reference herein in its entirety: Erk et al. Pharmazie. 2004 June; 59(6):453-6.
100 mg of rofecoxib was dissolved in 100 ml of methanol. Dilutions of the stock solution were made into methanol to give a final rofecoxib concentration of 5 μg/ml, 10 μg/ml, 20 μg/ml, 25 μg/ml, 30 μg/ml, 35 μg/ml, 40 μg/ml, 45 μg/ml, and 50 μg/ml. A UV spectrophotometer was utilized to read the absorbance of the samples 279.1 nm. Using Beer's law, a value for the extinction coefficient for rofecoxib was obtained. The value of the extinction coefficient of rofecoxib was determined to be 29.06 and was utilized in future experiments to determine the concentration of rofecoxib in various solvent systems.
100 mg of rofecoxib was added to 1 gram of each solvent. […] The mixtures of rofecoxib and solvents were vortexed for one minute and left at room temperature for one hour. The mixture was vortexed a second time and then left at room temperature overnight. The next morning the samples were vortexed a third time and then centrifuged at 12 k for 5 minutes. The excipient/rofecoxib mixture was transferred to a new tube being careful to not take any of the pellet. Serial dilutions of the rofecoxib solvent solutions were made (1:100 v:v), (1:1000 v/v), and (1:2000 v/v). Solvents without rofecoxib were diluted with methanol and used to blank a Beckman DU-7400 spectrophotometer. The absorbance of the samples was determined at a wavelength of 279.1 nm. The concentration of rofecoxib dissolved in the solvent was calculated using Beer's Law. Concentrations were converted from units of mg/mL to units of mg/g according to the following procedure:
(a) The volume of 1 g of solvent times the calculated mg/ml rofecoxib equals total mg of rofecoxib in 1 g of solvent. e.g. 1 g of a solvent that has a density of 1.05 g/mL is 952 μL. A rofecoxib solution with a concentration of rofecoxib of […] contains 28.17 mg of rofecoxib in 952 μL of solvent.
(b) To calculate the total volume, a mg of rofecoxib is assumed to equal to 1 μl of volume. Add volume of the solvent to the total weight of rofecoxib. 28.17 mg+1000 mg of solvent=1028.17 mg.
(c) To calculate the w/w divide the mg of rofecoxib 28.71 mg by the total weight of rofecoxib with solvent 1028.71 mg and multiply times 1000 mg to get the w/w […]/1028.71 mg*1000 mg=28.62 mg/g of solvent.

[2] = Solubility of rofecoxib in various solvents by High Performance Liquid Chromatography; assay type: physicochemical
[3] = in vivo; cited from earlier work

Solubility of Rofecoxib ([1]; in 2-Methylpentane-2,4-diol): 0.59 mg/g
Solubility of Rofecoxib ([1]; in Acetone): 23.58 mg/g
Solubility of Rofecoxib ([1]; in Benzyl Alcohol): 19.54 mg/g
Solubility of Rofecoxib ([1]; in Diethyl sebacate): 1.3 mg/g
Solubility of Rofecoxib ([1]; in Diethylene glycol monoethyl ether): 9.07 mg/g
Solubility of Rofecoxib ([1]; in Diisopropyl adipate): 2.04 mg/g
Solubility of Rofecoxib ([1]; in Dimethyl Isosorbide): 39.14 mg/g
Solubility of Rofecoxib ([1]; in Dimethyl Sulfoxide): 143.6 mg/g
Solubility of Rofecoxib ([1]; in Ethyl acetate): 5.5 mg/g
Solubility of Rofecoxib ([1]; in Isopropyl tetradecanoate): 0.0017 mg/g
Solubility of Rofecoxib ([1]; in N-methyl-2-pyrrolidone): 198 mg/g
Solubility of Rofecoxib ([1]; in Oleic acid): 0.402 mg/g
Solubility of Rofecoxib ([1]; in Polyethylene glycol-400 (PEG)): 13.14 mg/g
Solubility of Rofecoxib ([1]; in Polysorbate 20 (PS20)): 9.18 mg/g
Solubility of Rofecoxib ([1]; in Polysorbate 80 (PS80)): 9.71 mg/g
Solubility of Rofecoxib ([1]; in Propylene Carbonate): 49.43 mg/g
Solubility of Rofecoxib ([1]; in Propylene Glycol): 0.302 mg/g
Solubility of Rofecoxib ([1]; in Propylene glycol diacetate): 6.93 mg/g
Solubility of Rofecoxib ([1]; in alpha-Terpineol 95.0+ %): 0.313 mg/g
Solubility of Rofecoxib ([2]; in 1.25% Niacinamide (Aqueous), HPLC): No observable solubility
Solubility of Rofecoxib ([2]; in 10% Sodium Lauryl Sulfate (Aqueous), HPLC): No observable solubility*
Solubility of Rofecoxib ([2]; in Dehydrated Alcohol, HPLC): No observable solubility
Solubility of Rofecoxib ([2]; in Diethyl Sebacate, HPLC): No observable solubility
Solubility of Rofecoxib ([2]; in Diethylene Glycol Monoethyl Ether, HPLC): 0.5-1.0 % w/w
Solubility of Rofecoxib ([2]; in Diisoproovl Adipate, HPLC): No observable solubility
Solubility of Rofecoxib ([2]; in Dimethyl Isosorbide, HPLC): 2.5-3.5% w/w
Solubility of Rofecoxib ([2]; in Ethyl Acetate, HPLC): <0.5% w/w
Solubility of Rofecoxib ([2]; in Glycervl Monooleate, HPLC): No observable solubility
Solubility of Rofecoxib ([2]; in Hydrochloric Acid (0.1 N), HPLC): No observable solubility
Solubility of Rofecoxib ([2]; in Laureth-4, HPLC): No observable solubility
Solubility of Rofecoxib ([2]; in Medium Chain Triglycerides, HPLC): No observable solubility
Solubility of Rofecoxib ([2]; in N-Methvl-Pyrrolidone, HPLC): 4.4-5.4 % w/w
Solubility of Rofecoxib ([2]; in Oleyl Alcohol, HPLC): No observable solubility
Solubility of Rofecoxib ([2]; in PEG400, HPLC): 1.0-1.5 % w/w
Solubility of Rofecoxib ([2]; in Polysorbate 80, HPLC): No observable solubility
Solubility of Rofecoxib ([2]; in Propylene Carbonate, HPLC): 3.4-4.3 % w/w
Solubility of Rofecoxib ([2]; in Propylene Glycol Diacetate, HPLC): <0.5 % w/w
Solubility of Rofecoxib ([2]; in Sodium Hydroxide (0.1 N), HPLC): No observable solubility
Solubility of Rofecoxib ([2]; in Sorbitol Solution, HPLC): No observable solubility
Solubility of Rofecoxib ([2]; in Water pH 3, HPLC): No observable solubility
Solubility of Rofecoxib ([2]; in Water pH 5.5, HPLC): No observable solubility
Solubility of Rofecoxib ([2]; in Water pH 7.4, HPLC): No observable solubility
Compound: CS(=O)(=O)c1ccc(C2=C(c3ccccc3)C(=O)OC2)cc1 [Rofecoxib]
half-life [3]: 17 h
